How the values were obtained:
Format in all cases: cell-based, mice
[1] = test system: cultured hippocampal neurons; assay: Whole-cell patch clamp recordings of cultured hippocampal neurons
Excerpt: Whole-cell patch clamp recordings were made at room temperature from cultured hippocampal neurons plated on coverslips secured with a platinum ring in a recording chamber (Open access chamber-1, Science Products GmbH, Hofheim, Germany) mounted on a fixed-stage upright microscope (BX51WI, Olympus, Hamburg, Germany). Differential interference contrast optics, infrared illumination and a CCD camera (PCO, Visitron Systems, Puchheim, Germany) connected to a contrast enhancement unit (Argus, Hamamatsu, Herrsching am Ammersee, Germany) were used to view neurons on a video monitor. Recordings were made with a Multiclamp 700A amplifier, digitized through a Digidata 1322A A/D converter and acquired using pClamp software (Molecular Devices, CA, USA). All membrane potentials have been corrected for the calculated junction potential of −11 mV (JPCalc program by Dr. Peter H. Barry). mEPSCs and whole-cell AMPA (10 μM, 6 ml/min, Biotrend) responses were recorded as known in the art except for the solutions and that a holding potential of −71 mV was used and both TTX (1 μM, Biotrend, Cologne, Germany) and gabazine (5 μM, Biotrend) were included in the ACSF. TTX was applied before gabazine to prevent the induction of action potential bursting. Access (range: 7-18 MU) and membrane resistance (see Table 1) were monitored before and after mEPSC recordings and data was rejected if changes greater than 20% occurred.
Patch electrodes (3-4 MU) were made from borosilicate glass (1.5 mm, WPI, Sarasota, Fla., USA) and filled with intracellular solution (containing in mM: KCH3SO4, 145; NaCl, 8; HEPES, 10; K2-phosphocreatine, 10; Mgt-ATP, 4; Na3-GTP, 0.3; pH 7.35 with KOH). The extracellular solution was an artificial cerebrospinal fluid (ACSF, in mM: NaCl, 125; KCl, 3.5; MgCl2, 1.3; NaH2PO4, 1.2; CaCl2, 2.4; glucose, 25; NaHCO3, 26; gassed with 95% O2 and 5% CO2).

hippocampal neurons = assay: Morphometric analyses (total dendritic length, Sholl analysis, spine density) of cultured hippocampal neurons
Experimental: Hippocampal neurons from newborn C57BL/6 mice were cultured as known in the art. Experiments were done after a culturing period of 10 to 14 days in vitro (DIV). DNA transfection was done on DIV8 using Lipofectamine 2000 (Invitrogen, San Diego, Calif.). For the studies on dendrite morphology, neurons were analyzed 4-5 days after transfection.
For 3D Sholl Analysis, total dendritic length and spine morphology were calculated using Object-Image freeware software with a specific set of macros (written by Dr. E. Ruthazer, McGill University, Quebec). Briefly, a z-Stack acquisition was imported, calibrated in Object-Image and manually traced. Total dendritic length was then computed. For Sholl analysis, the shell interval was set at 5 μm. All analyses were performed blind. In all in vitro experiments, for each condition, a minimum of 12 neurons from three independent preparations was analyzed. For the Golgi staining quantifications of 20 neurons for each condition from 4 different injected animals per viral construct were traced and analyzed.
Hippocampal neurons were fixed with 4% paraformaldehyde at room temperature for 20 min. For immunostaining, primary and secondary antibodies were applied in GDB buffer (30 mM phosphate buffer [pH7.4] containing 0.2% gelatin, 0.5% Triton X-100, and 0.9 M NaCl). For the morphometric analyses, fluorescence images were acquired using a confocal laser-scanning microscope TCS SP2 (Leica, Mannheim, Germany) equipped with an inverted fluorescence microscope DM IRE2 (Leica) and Leica confocal scan software. All images were obtained with sequential acquisition setting at a resolution of 1024×1024 pixels. Each image was a z series projection of images taken at 1 μm intervals.

VEGFD = assay: Immunoblot analysis of VEGFD expression in hippocampal neurons; settings: hippocampal neurons infected with rAAV
Excerpt: C: Immunoblot analysis of VEGFD expression in uninfected hippocampal neurons and in hippocampal neurons infected with the indicated rAAVs. Tubulin was used for loading control. Neurons infected with rAAV-emptymC, rAAV-shVEGFD and rAAV-shSCR were detected by DsRed immunostaining (see above).
Mouse monoclonal antibody to tubulin (Sigma); mouse monoclonal NeuN antibody (Chemicon); mouse monoclonal anti-phospho-p38 MAP kinase antibody (BD); rabbit polyclonal antibodies to the HA tag, anti-VEGFD antibodies, anti-VEGFR3 (Santa Cruz); rabbit polyclonal antibody to phosphor-CREB (Upstate-Millipore); rabbit polyclonal antibody to phosphor-CaMKII (Promega); rabbit polyclonal antibodies to phosphor-MSK1, phosphor-ATF2, phosphor-ERK, phosphor-Akt, phosphor-MKK4, phosphor-JNK, phosphor-p70, phosphor-GSKα/β (Cell Signaling). Rabbit polyclonal antibodies to DsRed (Clontech). AlexaFluor 488-, AlexaFluor 594-, and AlexaFluor 633-labled secondary antibodies were from Molecular Probes (Eugene, Oreg., USA).

## shVEGFD: shRNA targeting mouse VEGFD mRNA (GGGCTTCAGGAGCGAACAT; SEQ ID NO: 1), expressed from rAAV vector or plasmid with U6 promoter
[1]; bath applied AMPA 10 μM
  AMPA response amplitudes: smaller
[1]; infected neurons
  AP induc thresh (current injection required to induce an action potential): 162 ± 14 pA
  AP thresh (membrane potential at which action potentials initiate): −46.5 ± 1.1 mV
  Cm (membrane capacitance): 68.3 ± 3.3 pF
  Rm (membrane resistance): 316 ± 19 MΩ
  Vrest (resting membrane potential): −82.9 ± 1.9 mV
  mEPSC τ decay: 4.14 ± 0.15 ms
  mEPSC τ rise: 2.91 ± 0.10 ms
[1]; transfected neurons
  AP induc thresh (current injection required to induce an action potential): 149 ± 14 pA
  AP thresh (membrane potential at which action potentials initiate): −45.6 ± 1.6 mV
  Cm (membrane capacitance): 59.7 ± 3.8 pF
  Rm (membrane resistance): 352 ± 29 MΩ
  Vrest (resting membrane potential): −79.7 ± 2.0 mV
  mEPSC τ decay: 3.82 ± 0.26 ms
  mEPSC τ rise: 2.82 ± 0.23 ms
[1]; versus respective shSCR expressing controls
  mEPSC inter-event intervals (IEIs, 1/frequency): longer mEPSC inter-event intervals
Hippocampal neurons; neurons expressing the construct versus control constructs
  total dendritic length and dendritic complexity (Sholl analysis): less complex dendritic arbor and a reduction in total dendritic length
Hippocampal neurons; transfected hippocampal neurons
  spine density (number of spines/20 μm): 6.52±0.51 spines/20 μm
VEGFD
  VEGFD protein expression (immunoblot): blocked VEGFD protein expression
